The subject of assay [1] is primary microglia. The experiment in a line: Active oxygen (ROS) production in primary microglia. The class given is cell-based, mouse. Here is the method:
Superoxide concentrations were calculated by measuring the degree of decrease in cytochrome c using a VersaMax microplate reader (Babior et al., 1973). Microglia were cultured on a 96-well plate at a concentration of 1.0×10^5 cells/well, and the microglia were activated by a 10 μM ATP solution containing 2-pentylfuran and cytochrome c, or a solution of Sup mixed with cytochalasin B (5 μM; #C66762; Sigma Aldrich). The resulting ROS concentration was measured by changes in light absorption at 550 nm at intervals of 1 minute for 25 minutes.
Active oxygen levels were measured using 2′,7′-dichlorodihydrofluorescein diacetate (DCF-DA, #D6883; Sigma Aldrich) using a method that had undergone minor modifications from the existing method. (Bae et al., 2001). More specifically, the primary microglia were treated with 10 μM DCF-DA in a 24-well plate (5.0×10^5 cells/well) […] at a temperature of 37° C. for 30 minutes. One plate was treated with 2-PF and one was not. Cells in each well were measured by a flow cytometer (FACS Accuri™ C6; BD Biosciences). MFI was measured in the same manner as described above.

The target of a further assay is T1, Olfr110 (Mus musculus, UniProt A2RT31).
T1 construct: Full-length odorant receptor genes from mouse and human genomic DNA were amplified using appropriate primers; Lucy (N); Flag (N); Rho (N); expressed in transfected cells; host or cells: Hana3A cells, co-transfected with RTP1S, pCRELuc and pRL-SV40
T1 sequence (A2RT31 1-317): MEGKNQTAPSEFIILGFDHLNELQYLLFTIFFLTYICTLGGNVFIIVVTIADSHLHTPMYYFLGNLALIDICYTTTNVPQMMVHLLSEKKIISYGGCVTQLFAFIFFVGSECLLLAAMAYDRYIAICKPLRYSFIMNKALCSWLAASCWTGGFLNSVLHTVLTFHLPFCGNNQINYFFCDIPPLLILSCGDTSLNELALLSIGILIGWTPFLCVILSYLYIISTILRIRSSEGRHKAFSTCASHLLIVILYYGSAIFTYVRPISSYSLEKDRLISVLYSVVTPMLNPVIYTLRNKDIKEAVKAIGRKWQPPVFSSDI
The experiment in a line: Luciferase assay in Hana3A cells, Olfr110. Format: cell-based.

For assay [2], the system named is primary microglia. The assay can be described thus: Western blot of phosphorylated signalling proteins in primary microglia. The class given is cell-based, mouse. The settings on record: 0, 2, 5, 10, 20, 30 minutes after treatment. Here is the method: Cells and tissues were prepared using the T-PER® reagent (#78510; Thermo Fisher Scientific) with protease inhibitors (#04-693-116-001; Roche Molecular Diagnostics), DMSF (Sigma-Aldrich) and lysed using the MagNA Lyser (Roche Molecular Diagnostics). A total protein extract was quantified by the Bradford assay. The sample was dissolved in 7.5% SDS-PAGE or 4 to 20% gradient mini-PROTEIN TGX Precast Gels (#456-1064; Bio-Rad Laboratories), and then blotted onto nitrocellulose membranes (#10600002; GE Healthcare). The membrane was then blocked in 5% skimmed milk powder, TBST, 0.1% TWEEN® 20 (#P9416; Sigma-Aldrich) and Tris-buffered saline for 1 hour, and then incubated with primary antibodies at 4° C. overnight. The antibodies are as follows: Olfr110 (36 kDa; 1:1,000; #ab177327; Abcam), anti rhodopsin (39 kDa; 1:1,000; #MABN15; Millipore), CREB (43 kDa; 1:1,000; #9197; Cell Signaling Technology), phospho-CREB (43 kDa; 1:1,000; #9198; Cell Signaling Technology), ERK (44 kDa; 1:1,000; #sc094; Santa Cruz), phospho-ERK (42, 44 kDa; 1:1,000; #sc-7383; Santa Cruz), phospho-Akt (60 kDa; 1:500; sc-293125; Santa Cruz), phospho-JNK (46, 54 kDa; 1:500; sc-6254; Santa Cruz), phosphor-p38 (38 kDa; 1:1,000; sc-7973; Santa Cruz), or beta-Actin (45 kDa; 1:10,000; #4967; Cell Signaling Technology). Furthermore, an isotype-matched horseradish peroxidase-conjugated secondary antibody was used at 1:100,000 with anti-rabbit in TBST (#711-035-152; Jackson ImmunoResearch) and 1:40,000 with anti-mouse (#715-035-150; Jackson ImmunoResearch) at room temperature for 2 hours. As an immunoreactive protein band, SuperSignal™ West Pico Chemiluminescent Substrate (#34080; Thermo Fisher Scientific) was used.
(A western blot detects proteins with antibodies after separation by electrophoresis.)

In assay [3] the test system is primary microglia. The assay can be described thus: Boyden chamber chemotaxis of primary microglia. The class given is cell-based, mouse. To be noted: 100, 300, and 500 μM. Here is the method:
Cell chemotaxis was measured using a multiwell Boyden chamber. More specifically, a polycarbonate filter (8 μm pore; #101-8; Neuroprobe) was coated with […] fibronectin in PBS (Sigma-Aldrich) for 2 hours, and the coated filter was placed in a Boyden chamber. In addition, the bottom side of the plate was filled with serum-free DMEM containing 2-pentylfuran or a culture supernatant. Next, microglia or Hana3A cells were transfected with an odorant receptor structure and then suspended in serum-free DMEM. Subsequently, microglia and Hana3A cells were allowed to stand at 37° C. for 4 hours and 8 hours, respectively. Cells sinking to the bottom were fixed with 4% PFA, and stained with hematoxylin for 10 minutes. Fixed cells were counted under an optical microscope in 5 randomly selected fixed […] fields (200×) using a scored eyepiece. The chemical chemotaxis index was defined as the number of migrating cells using an untreated group as a standard.

“Also recorded” adds a separate entry of the source.

Method for Olfr110: Next, Hana3A cells were transfected with RTP1S, and their location and presence on the cell membrane were confirmed as previously described (Behrens et al., 2009; Zhuang and Matsunami, 2008). Such transfection was performed using Lipofectamine 2000 (#11668-019; Thermo Fisher Scientific) according to the manufacturer's instructions. More specifically, the transfected cells were grown on a coverslip (#0101050; Marienfeld) coated with poly D lysine (10 μg/ml; #P7280; Sigma Aldrich). Next, the cells were washed with a warm PBS solution and cooled with ice for 30 minutes to block endocytosis. […] The cells were then incubated with normal horse serum (#008-000-121; Jackson ImmunoResearch) at room temperature for 1 hour. […] After being washed with PBS, the cells were treated with a Cy3-conjugated donkey anti-mouse antibody (1:1,000; #715-165-150; Jackson ImmunoResearch), an Alexa488-conjugated donkey anti-mouse antibody (1:1,000; #715-545-150; Jackson ImmunoResearch), or a Cy3-conjugated donkey anti-rabbit antibody (1:1,000; #711-165-152; Jackson ImmunoResearch) at room temperature for 1 hour. The cells were mounted with a Vectashield fluorescent mounting medium containing DAPI (#H-1200; Vector Laboratories). The expression of heterologous odorant receptors was analyzed with a confocal laser scanning microscope LSM700 and ZEN software (Zeiss).
The Dual-Glo luciferase assay system (#E2940; Promega) was used for odorant receptor ligand screening. More specifically, Hana3A cells were streaked and spread on a white polystyrene 96-well plate (#353296; BD Biosciences) one day before transfection. pCRELuc (1 μg; #219076; Agilent Technologies), pRL-SV40 (1 μg; #E2231; Promega), RTP1S (1 μg), and OR (6 μg; or Mock) vectors were transfected for 24 hours in each plate. Each plate was analyzed using Lipofectamine 2000 (#11668-019; Thermo Fisher Scientific) according to the manufacturer's protocol. Transfected cells were stimulated in CD293 medium (#11913-019; Thermo Fisher Scientific) at 37° C. for 4 hours using diluted odorants at various concentrations. The activity of luciferase was normalized by the activity of Renilla luciferase. The amount of light emitted was measured using a SpectraMax L microplate reader (Molecular Devices).

In the case of `CCCCCc1ccco1` [2-PF, 2-pentylfuran], the “production of active oxygen on top of Sup MOI 5” value in the assay on primary microglia [1] (500 μM 2-PF) is “further increased”. In the assay on primary microglia [1] (100, 300, and 500 μM), the “active oxygen secretion of microglia” value was “significantly increased in a concentration-dependent manner”. Besides, the “mode of action at Olfr110” value on Olfr110 was “agonist”. The “reactivity of Olfr110 (relative luciferase activity)” value at Olfr110 (Hana3A cells) was “particularly strong reactivity; also recorded: strongest reactivity”. In addition, the “phosphorylation levels of ERK, p38, JNK, and Akt” value in the assay with primary microglia [2] is “increased from 2 minutes and stopped increasing at 20 minutes”. Moreover, the chemotaxis of microglia entry with primary microglia [3] is “significantly increased in a concentration-dependent manner”.

(Values after patent publication US12396977B2, “Composition for treating degenerative brain diseases, containing 2-pentylfuran as active ingredient” (DAEGU GYEONGBUK INSTITUTE OF SCIENCE AND TECHNOLOGY, priority 2019, dated 2025).)
